8 molecules from patent US20260217735A1, “HETEROCYCLES AND USES THEREOF” (Kumquat Biosciences Inc., priority 2023, published 2026) can be followed below.

One experiment addresses T1, KRAS G12D (Homo sapiens, UniProt P01116, G12D).
T1 construct: made in house; host or cells: E. coli, e.g. BL21 (DE3)
The experiment is described as follows: HTRF assay, KRAS G12D interaction with SOS1. Format: biochemical. Background: TR-FRET usually uses a lanthanide donor and a delayed reading to cut background.

For a further experiment, the target named is T2, KRAS WT (Homo sapiens, UniProt P01116).
T2 construct: made in house; host or cells: E. coli, e.g. BL21 (DE3)
The experiment is described as follows: HTRF assay, wildtype KRAS interaction with SOS1. As to conditions: bins <500 nM / 500 nM to 1000 nM, read-out: Inhibition of KRAS WT (IC50). Format: biochemical.

In the next experiment the target is T3, KRAS G12V (Homo sapiens, UniProt P01116, G12V).
T3 construct: made in house; host or cells: E. coli, e.g. BL21 (DE3)
The experiment can be described thus: HTRF assay, KRAS G12V interaction with SOS1. Format: biochemical.

The target of a further experiment is T4, KRAS G12S (Homo sapiens, UniProt P01116, G12S).
T4 construct: made in house; host or cells: E. coli, e.g. BL21 (DE3)
The experiment can be described thus: HTRF assay, KRAS G12S interaction with SOS1. Format: biochemical.

The subject of a further experiment is MiaPaca2 cells. The experiment is described as follows: Ras cellular assay, growth of cells with K-Ras G12C mutation. Format: cell-based. As to conditions: Homo sapiens, MIA PaCa-2. In a few lines: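 MIA PaCa-2 cells (K-Ras G12C, about 125-150 cells/well) grown in 0.25% soft agar over a 0.6% agar base, compound added on day 2 at 0.3% final DMSO. Growth read on day 10 by Cell Titer 96 AQueous absorbance (490 nm, reference 660 nm) against time-zero wells; IC50 from four-parameter fit.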

In another experiment the test system is LS123 cells. The experiment is described as follows: Ras cellular assay, growth of cells with K-Ras G12S mutation (CellTiter-Glo). As to conditions: Homo sapiens, LS-123; KRAS G12S cell line; read-out: IC50 against LS123 cells. Format: cell-based. As for the experimental part: For example, this assay can be also used to assess selective growth inhibition of a mutant Ras protein relative to a wildtype or different mutant Ras protein.
A549 (ATCC CRL-185) and LS123 (ATCC CRL-255) cell lines comprise a G12S mutation and can be used to assess Ras cellular signaling in vitro, e.g., in response to treatment with a compound described herein. A549 culture medium is prepared with RPMI-1640 and 10% heat-inactivated FBS. LS123 culture medium is prepared with RPMI-1640 and 10% heat-inactivated FBS. A CellTiter-Glo (CTG) luminescent based assay (Promega) is used to assess growth of the cells, as a measurement of the ability of the compounds herein to inhibit Ras signaling in the cells. The cells (e.g., 800 per well) are seeded in their respective culture medium in standard tissue culture-treated 384-well format plates (Falcon #08-772-116) or ultra-low attachment surface 384-well format plates (S-Bio #MS-9384WZ). […] Cell viability can be monitored (e.g., approximately 6 days later) according to the manufacturer's recommended instructions, where CellTiter-Glo reagent is added (e.g., approximately 10 μL), vigorously mixed, covered, and placed on a plate shaker (e.g., approximately for 20 min) to ensure sufficient cell lysis prior to assessment of luminescent signal. The IC50 values are determined using the four parameter fit. […]
(In general: Cellular ATP, detected with luciferase, serves as a proxy for viable cell number.)

Where [1] appears, read: bins <500 nM / 500 nM to 1000 nM, read-out: Inhibition of KRAS G12D (IC50).
[2] abbreviates: bins <500 nM / 500 nM to 1000 nM, read-out: Inhibition of KRAS G12V (IC50).
[3] abbreviates: bins <500 nM / 500 nM to 1000 nM, read-out: Inhibition of KRAS G12S (IC50).
The mark [4] stands for this setting: cell proliferation assay, bins ≤500 nM / >500 nM, read-out: Inhibition of MiaPaca2 Cells (IC50).

Where two headings read alike, the source gives them in different places.

T4 sequence (P01116 1-188 isoform P01116-2 G12S): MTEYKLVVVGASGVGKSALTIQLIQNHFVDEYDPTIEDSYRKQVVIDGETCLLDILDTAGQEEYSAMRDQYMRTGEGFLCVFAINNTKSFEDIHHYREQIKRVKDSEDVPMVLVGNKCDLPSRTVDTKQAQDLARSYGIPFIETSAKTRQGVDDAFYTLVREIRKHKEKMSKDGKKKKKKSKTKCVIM
T1 sequence (P01116 1-188 isoform P01116-2 G12D): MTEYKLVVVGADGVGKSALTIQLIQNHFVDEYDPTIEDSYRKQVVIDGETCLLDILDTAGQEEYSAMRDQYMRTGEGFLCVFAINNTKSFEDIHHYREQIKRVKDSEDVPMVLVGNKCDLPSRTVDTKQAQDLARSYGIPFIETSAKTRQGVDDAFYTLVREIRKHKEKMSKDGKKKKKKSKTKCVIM
T2 sequence (P01116 1-188 isoform P01116-2): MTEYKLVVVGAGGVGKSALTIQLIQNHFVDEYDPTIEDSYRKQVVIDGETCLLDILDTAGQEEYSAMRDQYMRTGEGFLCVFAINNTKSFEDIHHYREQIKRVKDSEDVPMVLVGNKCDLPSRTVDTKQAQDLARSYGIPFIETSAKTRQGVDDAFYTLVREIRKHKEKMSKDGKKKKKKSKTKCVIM
T3 sequence (P01116 1-188 isoform P01116-2 G12V): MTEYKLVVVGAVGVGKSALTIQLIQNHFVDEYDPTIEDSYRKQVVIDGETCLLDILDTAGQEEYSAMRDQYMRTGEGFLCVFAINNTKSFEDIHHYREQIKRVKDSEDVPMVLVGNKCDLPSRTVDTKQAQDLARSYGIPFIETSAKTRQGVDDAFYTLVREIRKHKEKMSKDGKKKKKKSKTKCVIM

As a reminder, the IC50 is the concentration that inhibits the measured activity by half. As for `CCN(c1nc(OCC23CCCN2C(COc2cc(C(F)(F)F)ncn2)CC3)nc2c(F)c(-c3ccc(F)c4sc(N)c(C#N)c34)c(Cl)cc12)[C@@H]1CCN(C(=O)n2cc(C)nc2C)[C@@H]1C` (single isomer, unassigned) [Compound 197], the IC50 at KRAS G12D (setting [1]) is under 500 nM; at KRAS G12D (read-out: IC50 against KRAS G121), under 5 nM; at KRAS WT, under 500 nM; on KRAS G12V (setting [2]), under 500 nM; at KRAS G12V (read-out: IC50 against KRAS G12V), under 5 nM; at KRAS G12S (setting [3]), under 500 nM. In addition, the half-maximal inhibitory concentration (IC50) was under 5 nM at KRAS G12S (read-out: IC50 against KRAS G12S); 0.42 nM in the experiment on MiaPaca2 cells (KRAS G12C cell line, read-out: IC50 against MiaPaca2 cells); 4.6 nM with LS123 cells.
For `C[C@@H]1[C@H](N(C)c2nc(OC[C@@]34CCCN3C[C@H](F)C4)nc3c(F)c(-c4ccc(F)c5sc(N)c(C#N)c45)c(Cl)cc23)CCN1C(=O)n1cnc(Cl)c1` [Compound 211, 2-amino-4-(6-chloro-4-(((2R,3R)-1-(4-chloro-1H-imidazole-1-carbonyl)-2-methylpyrrolidin-3-yl)(methyl)amino)-8-fluoro-2-(((2R,7aS)-2-fluorotetrahydro-1H-pyrrolizin-7a(5H)-yl)methoxy)quinazolin-7-yl)-7-fluorobenzo[b]thiophene-3-carbonitrile], the 50% inhibitory concentration (IC50) on KRAS G12D (setting [1]) was under 500 nM; on KRAS WT, under 500 nM; at KRAS G12V (setting [2]), under 500 nM; at KRAS G12S (setting [3]), under 500 nM; in the experiment with MiaPaca2 cells (setting [4]), at most 500 nM.
Take `CCN(c1nc(OC[C@@]23CCCN2C[C@@]2(CC2(F)F)C3)nc2c(F)c(-c3ccc(F)c4sc(N)c(C#N)c34)c(C(F)(F)F)cc12)[C@@H]1CCN(C(=O)n2cnc(F)n2)[C@@H]1C` [Compound 212, 2-amino-4-(2-(((1S,7a′S)-2,2-difluorodihydro-1′H,3′H-spiro[cyclopropane-1,2′-pyrrolizin]-7a′(5′H)-yl)methoxy)-4-(ethyl((2R,3R)-1-(3-fluoro-1H-1,2,4-triazole-1-carbonyl)-2-methylpyrrolidin-3-yl)amino)-8-fluoro-6-(trifluoromethyl)quinazolin-7-yl)-7-fluorobenzo[b]thiophene-3-carbonitrile]: the IC50 on KRAS G12D (setting [1]) was under 500 nM; on KRAS WT, under 500 nM; on KRAS G12V (setting [2]) it was under 500 nM; at KRAS G12S (setting [3]), under 500 nM; with MiaPaca2 cells (setting [4]) it was at most 500 nM.
As to `CC(C)c1cn(C(=O)N2CC[C@@H](N(C)c3nc(OC[C@@]45CCCN4C[C@H](F)C5)nc4c(F)c(-c5ccc(F)c6sc(N)c(C#N)c56)c(Cl)cc34)[C@H]2C)cn1` [Compound 213, 2-amino-4-(6-chloro-8-fluoro-2-(((2R,7aS)-2-fluorotetrahydro-1H-pyrrolizin-7a(5H)-yl)methoxy)-4-(((2R,3R)-1-(4-isopropyl-1H-imidazole-1-carbonyl)-2-methylpyrrolidin-3-yl)(methyl)amino)quinazolin-7-yl)-7-fluorobenzo[b]thiophene-3-carbonitrile], the concentration for half-maximal inhibition (IC50) is under 500 nM at KRAS G12D (setting [1]); under 500 nM on KRAS WT; under 500 nM on KRAS G12V (setting [2]); under 500 nM on KRAS G12S (setting [3]); at most 500 nM with MiaPaca2 cells (setting [4]).
`CC[C@H]1N(C(=O)n2cnc(C)c2C)C[C@]12CCCCN(c1nc(OC[C@@]34CCCN3C[C@H](F)C4)nc3c(F)c(-c4ccc(F)c5sc(N)c(C#N)c45)c(Cl)cc13)C2` [Compound 215, 2-amino-4-(6-chloro-4-((1R,4R)-2-(4,5-dimethyl-1H-imidazole-1-carbonyl)-1-ethyl-2,6-diazaspiro[3.6]decan-6-yl)-8-fluoro-2-(((2R,7aS)-2-fluorotetrahydro-1H-pyrrolizin-7a(5H)-yl)methoxy)quinazolin-7-yl)-7-fluorobenzo[b]thiophene-3-carbonitrile]: the IC50 on KRAS G12D (setting [1]) is under 500 nM; on KRAS WT, under 500 nM; at KRAS G12V (setting [2]), under 500 nM; on KRAS G12S (setting [3]), under 500 nM; with MiaPaca2 cells (setting [4]), at most 500 nM.
As to `CC(C)[C@@H]1C[C@H](N(C)c2nc(OC[C@@]34CCCN3C[C@H](F)C4)nc3c(F)c(-c4ccc(F)c5sc(N)c(C#N)c45)c(Cl)cc23)CN1C(=O)n1cnc(Cl)n1` [Compound 216, 2-amino-4-(6-chloro-4-(((3S,5S)-1-(3-chloro-1H-1,2,4-triazole-1-carbonyl)-5-isopropylpyrrolidin-3-yl)(methyl)amino)-8-fluoro-2-(((2R,7aS)-2-fluorotetrahydro-1H-pyrrolizin-7a(5H)-yl)methoxy)quinazolin-7-yl)-7-fluorobenzo[b]thiophene-3-carbonitrile], the half-maximal inhibitory concentration (IC50) at KRAS G12D (setting [1]) is 500 to 1000 nM; at KRAS WT, under 500 nM; at KRAS G12V (setting [2]) it was under 500 nM; at KRAS G12S (setting [3]) it was under 500 nM; with MiaPaca2 cells (setting [4]), over 500 nM.
For the molecule `CN(c1nc(OC[C@@]23CCCN2C[C@H](F)C3)nc2c(F)c(-c3ccc(F)c4sc(N)c(C#N)c34)c(Cl)cc12)[C@H]1CCN(C(=O)n2ccnc2)C1` [Compound 218, 4-(4-(((S)-1-(1H-imidazole-1-carbonyl)pyrrolidin-3-yl)(methyl)amino)-6-chloro-8-fluoro-2-(((2R,7aS)-2-fluorotetrahydro-1H-pyrrolizin-7a(5H)-yl)methoxy)quinazolin-7-yl)-2-amino-7-fluorobenzo[b]thiophene-3-carbonitrile], the IC50 on KRAS G12D (setting [1]) is under 500 nM; at KRAS WT, under 500 nM; at KRAS G12V (setting [2]) it was under 500 nM; on KRAS G12S (setting [3]), under 500 nM; in the experiment with MiaPaca2 cells (setting [4]) it was at most 500 nM.
For the molecule `C[C@@H]1[C@H](N(C)c2nc(OC[C@@]34CCCN3C[C@H](F)C4)nc3c(F)c(-c4ccc(F)c5sc(N)c(C#N)c45)c(Cl)cc23)CCN1C(=O)n1cc(C#N)cn1` [Compound 220, 1-((2R,3R)-3-((7-(2-amino-3-cyano-7-fluorobenzo[b]thiophen-4-yl)-6-chloro-8-fluoro-2-(((2R,7aS)-2-fluorotetrahydro-1H-pyrrolizin-7a(5H)-yl)methoxy)quinazolin-4-yl)(methyl)amino)-2-methylpyrrolidine-1-carbonyl)-1H-pyrazole-4-carbonitrile], the half-inhibitory concentration (IC50) was under 500 nM on KRAS G12D (setting [1]); under 500 nM on KRAS WT; under 500 nM on KRAS G12V (setting [2]); under 500 nM on KRAS G12S (setting [3]); at most 500 nM in the experiment with MiaPaca2 cells (setting [4]).
